From publication PMC8843313, “Highly potent inhibitors of cathepsin K with a differently positioned cyanohydrazide warhead: structural analysis of binding mode to mature and zymogen-like enzymes” (Journal of Enzyme Inhibition and Medicinal Chemistry, 2022)

How the values were obtained:
[1] = target: T1, cathepsin K (mature, mCatK) (Homo sapiens, UniProt P43235); assay: crystal structure […] Å (also with iCatK, 7QBM); Ki by fluorogenic enzyme assay (Morrison); type: biochemical; conditions: read-out: mCatK inhibition^a / Ki
T1 construct: gene CTSK; mature CatK, model residues Ala1 to Met215 (from recombinant zymogen expressed in Pichia pastoris)
T1 sequence (P43235 115-329): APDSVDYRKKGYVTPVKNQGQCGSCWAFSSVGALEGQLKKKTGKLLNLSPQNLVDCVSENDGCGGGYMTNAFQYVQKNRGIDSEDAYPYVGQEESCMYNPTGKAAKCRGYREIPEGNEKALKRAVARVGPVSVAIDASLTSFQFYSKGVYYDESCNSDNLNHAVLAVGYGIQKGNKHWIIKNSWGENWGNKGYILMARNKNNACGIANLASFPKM

[2] = target: T2, cathepsin K (mature, mCatK) (Homo sapiens, UniProt P43235); assay: crystal structure […] Å (also with iCatK, 7QBO); Ki by slow-binding fluorogenic enzyme assay; type: biochemical; conditions: read-out: mCatK inhibition^a / Ki
T2 construct: gene CTSK; mature CatK, model residues Ala1 to Met215 plus N-terminal Gly-Arg (98p–99p) (from recombinant zymogen expressed in Pichia pastoris)
T2 sequence (P43235 113-329): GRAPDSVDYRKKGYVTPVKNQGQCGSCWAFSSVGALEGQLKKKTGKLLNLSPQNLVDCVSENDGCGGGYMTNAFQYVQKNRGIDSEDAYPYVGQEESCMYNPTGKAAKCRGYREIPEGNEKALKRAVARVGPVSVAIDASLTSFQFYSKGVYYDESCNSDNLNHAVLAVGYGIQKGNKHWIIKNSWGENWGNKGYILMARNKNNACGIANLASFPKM

| Ki [1] [nM] | Ki [2] [nM] | SMILES |
| --- | --- | --- |
| 0.013 |  | CN(Cc1ccccc1)C(=O)CN(C#N)NC(=O)OC(C)(C)C [Gü2602] |
|  | 0.91 | CN(C#N)N(C)C(=O)[C@H](Cc1ccccc1)NC(=O)OCc1ccccc1 [Gü1303] |
